According to ChEMBL document CHEMBL1201862, “PubChem BioAssay data set” (2004):
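Each compound was tested at five concentrations against cells in 96-well plates for 48 hours. At the GI50, growth is halved.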 Calls of active or inactive are those of the source. Cut-off read from the data, not from the text of the source: active = GI50 up to about 1.1 µM and inactive = higher.

Legend:
Experiment in all cases: NCI-60 cell line screen, 48 h
HT-29 = test system: HT-29
TK-10 = test system: TK-10
UO-31 = test system: UO-31
SW-620 = test system: SW-620
UACC-257 = test system: UACC-257
LOX IMVI = test system: LOX IMVI
SK-MEL-28 = test system: SK-MEL-28
SNB-19 = test system: SNB-19
HOP-92 = test system: HOP-92
IGROV-1 = test system: IGROV-1
NCI-H23 = test system: NCI-H23
CAKI-1 = test system: CAKI-1
NCI-H226 = test system: NCI-H226
HL-60 = test system: HL-60
OVCAR-8 = test system: OVCAR-8
COLO 205 = test system: COLO 205
NCI-H522 = test system: NCI-H522

Measured: GI50

O=C(CCn1[nH]c(=O)c(Cl)c(Cl)c1=O)NOCCCc1ccccc1
inactive: HT-29 > 100 µM | TK-10 > 100 µM | UO-31 > 100 µM | SW-620 > 100 µM | UACC-257 > 100 µM | LOX IMVI > 100 µM | SK-MEL-28 > 100 µM | SNB-19 > 100 µM | HOP-92 > 100 µM | IGROV-1 > 100 µM | NCI-H23 > 100 µM | CAKI-1 > 100 µM | NCI-H226 > 100 µM | HL-60 > 100 µM | OVCAR-8 > 100 µM

O=C1C=CC(CC(=O)c2ccc3ccccc3c2)O1 (stereo not given)
inactive: HT-29 19.1 µM | TK-10 32.8 µM | UO-31 24.3 µM | SW-620 26.5 µM | UACC-257 47.6 µM | LOX IMVI 21 µM | SK-MEL-28 55.8 µM | COLO 205 18 µM | SNB-19 32.7 µM | HOP-92 28 µM | IGROV-1 29.2 µM | NCI-H23 20.7 µM | CAKI-1 62.1 µM | HL-60 17.1 µM | OVCAR-8 18.4 µM

CC1(C=O)C(=O)CCC2(C)C3CC(=O)OC3CCC12 (stereo not given)
inactive: HT-29 > 100 µM | TK-10 > 100 µM | UO-31 > 100 µM | SW-620 > 100 µM | NCI-H522 > 100 µM | UACC-257 > 100 µM | LOX IMVI > 100 µM | SK-MEL-28 > 100 µM | COLO 205 > 100 µM | SNB-19 > 100 µM | HOP-92 > 100 µM | IGROV-1 > 100 µM | NCI-H23 > 100 µM | CAKI-1 > 100 µM | HL-60 > 100 µM | OVCAR-8 > 100 µM

COC(=O)C1C(=O)CC2CCCCC21 (stereo not given)
inactive: TK-10 > 100 µM | UO-31 > 100 µM | SW-620 > 100 µM | NCI-H522 > 100 µM | UACC-257 > 100 µM | SK-MEL-28 > 100 µM | COLO 205 > 100 µM | SNB-19 > 100 µM | IGROV-1 > 100 µM | CAKI-1 > 100 µM | NCI-H226 > 100 µM | HL-60 > 100 µM

CN(/N=C/c1cccc2cccnc12)c1c([N+](=O)[O-])cc([N+](=O)[O-])cc1[N+](=O)[O-]
inactive: HT-29 69.2 µM | TK-10 > 100 µM | SW-620 > 100 µM | UACC-257 > 100 µM | LOX IMVI 45.3 µM | SK-MEL-28 > 100 µM | COLO 205 > 100 µM | SNB-19 > 100 µM | HOP-92 > 100 µM | IGROV-1 > 100 µM | NCI-H23 > 100 µM | CAKI-1 > 100 µM | NCI-H226 > 100 µM | HL-60 5.82 µM | OVCAR-8 > 100 µM

CCOC(=O)C(=O)Nc1ccc(C)c(C)c1
inactive: HT-29 > 56.2 µM | TK-10 > 100 µM | UO-31 > 100 µM | SW-620 5.81 µM | NCI-H522 > 100 µM | UACC-257 > 100 µM | LOX IMVI > 56.1 µM | SK-MEL-28 > 100 µM | COLO 205 17.1 µM | SNB-19 > 100 µM | IGROV-1 > 100 µM | NCI-H23 > 100 µM | CAKI-1 > 100 µM | NCI-H226 > 100 µM | HL-60 > 54.8 µM

NCCCCCCNCc1cccc2ccccc12
inactive: HT-29 38.3 µM | TK-10 > 100 µM | UO-31 53.5 µM | SW-620 85.5 µM | NCI-H522 83.6 µM | UACC-257 46.3 µM | LOX IMVI 41 µM | SK-MEL-28 65.2 µM | COLO 205 29.9 µM | SNB-19 > 100 µM | IGROV-1 > 100 µM | NCI-H23 > 100 µM | CAKI-1 > 100 µM | NCI-H226 > 100 µM | HL-60 54.2 µM | OVCAR-8 > 100 µM

CCCCCCCCCCCCCCCC(=O)OCCOCCOCCOCc1ccccc1
inactive: HT-29 > 100 µM | TK-10 > 100 µM | SW-620 > 100 µM | UACC-257 > 100 µM | LOX IMVI > 100 µM | SK-MEL-28 > 100 µM | COLO 205 > 100 µM | SNB-19 63.8 µM | HOP-92 21.1 µM | IGROV-1 > 100 µM | NCI-H23 > 100 µM | CAKI-1 80.7 µM | NCI-H226 > 100 µM | OVCAR-8 > 100 µM

CC1=N/C(=C\c2ccc(N)cc2)C(=O)N1Nc1nnc(NN2C(=O)/C(=C/c3ccc(N)cc3)N=C2C)c2ccccc12
inactive: HT-29 > 100 µM | SW-620 83.9 µM | NCI-H522 21.3 µM | UACC-257 > 100 µM | LOX IMVI 41.9 µM | SK-MEL-28 > 100 µM | COLO 205 83.6 µM | SNB-19 33 µM | HOP-92 > 100 µM | IGROV-1 85.9 µM | NCI-H23 > 100 µM | NCI-H226 14.3 µM | HL-60 22.1 µM | OVCAR-8 > 100 µM

N=C(N)SCc1cn2ccccc2n1
inactive: HT-29 > 100 µM | TK-10 > 100 µM | UO-31 > 100 µM | SW-620 > 100 µM | NCI-H522 > 100 µM | UACC-257 > 100 µM | LOX IMVI > 100 µM | SK-MEL-28 > 100 µM | COLO 205 > 100 µM | SNB-19 > 100 µM | NCI-H23 > 100 µM | CAKI-1 > 100 µM | NCI-H226 > 100 µM | HL-60 > 100 µM | OVCAR-8 > 100 µM

COc1ccc2cc1Oc1ccc(cc1)CC1c3cc(c(OC)cc3CCN1C)Oc1c3c(cc4c1C(C2)N(C)CC4)OCO3 (stereo not given)
inactive: HT-29 2.46 µM | TK-10 2.19 µM | SW-620 13.1 µM | NCI-H522 7.16 µM | LOX IMVI 1.85 µM | SK-MEL-28 3.29 µM | COLO 205 3.89 µM | SNB-19 17.6 µM | IGROV-1 15.1 µM | NCI-H23 17 µM | NCI-H226 2.35 µM | HL-60 1.92 µM | OVCAR-8 8.36 µM

O=C1c2cccc3c(Cl)ccc(c23)C(=O)N1CCCN1CCN(CCCN2C(=O)c3cccc4c(Cl)ccc(c34)C2=O)CC1
inactive: HT-29 > 100 µM | TK-10 > 100 µM | UO-31 > 100 µM | SW-620 > 100 µM | UACC-257 > 100 µM | LOX IMVI > 100 µM | COLO 205 > 100 µM | SNB-19 > 100 µM | HOP-92 > 100 µM | IGROV-1 > 100 µM | NCI-H23 97.1 µM | CAKI-1 > 100 µM | NCI-H226 > 100 µM | HL-60 > 100 µM | OVCAR-8 50.9 µM

CC1C2CC=CC(=O)[C@@]2(C)CCC12OCCO2 (stereo not given in full)
inactive: HT-29 > 100 µM | TK-10 > 100 µM | UO-31 > 100 µM | SW-620 > 100 µM | NCI-H522 > 100 µM | UACC-257 > 100 µM | SK-MEL-28 > 100 µM | SNB-19 > 100 µM | HOP-92 > 100 µM | IGROV-1 > 100 µM | NCI-H23 > 100 µM | CAKI-1 > 100 µM | NCI-H226 > 100 µM | HL-60 > 10 µM | OVCAR-8 > 100 µM

CC(=O)O[C@H]1CSC[C@@H](OC(C)=O)C1[N+](=O)[O-] (stereo not given in full)
inactive: HT-29 48.2 µM | TK-10 > 100 µM | SW-620 27 µM | NCI-H522 19.4 µM | UACC-257 20.6 µM | SK-MEL-28 26.8 µM | COLO 205 21.4 µM | SNB-19 > 100 µM | HOP-92 19 µM | IGROV-1 > 100 µM | NCI-H23 > 100 µM | CAKI-1 48.6 µM | NCI-H226 > 100 µM | HL-60 23.2 µM | OVCAR-8 45.5 µM

O=C1/C(=C/c2ccc(Br)cc2)CCC/C1=C\c1ccc(Br)cc1
inactive: HT-29 1.88 µM | TK-10 27.5 µM | UO-31 12.3 µM | SW-620 5.13 µM | NCI-H522 13.6 µM | UACC-257 4.2 µM | SK-MEL-28 2.12 µM | COLO 205 12.7 µM | SNB-19 18.9 µM | IGROV-1 15.3 µM | NCI-H23 5.69 µM | CAKI-1 29.2 µM | HL-60 3.18 µM | OVCAR-8 3.95 µM

COc1c(C)c(O)c2c(=O)cc(-c3ccccc3)oc2c1C
inactive: HT-29 > 100 µM | TK-10 > 100 µM | UO-31 > 100 µM | SW-620 > 100 µM | NCI-H522 > 100 µM | UACC-257 > 100 µM | LOX IMVI > 100 µM | SK-MEL-28 > 100 µM | HOP-92 > 100 µM | IGROV-1 > 100 µM | NCI-H23 > 100 µM | CAKI-1 > 100 µM | NCI-H226 > 100 µM | OVCAR-8 > 100 µM

C=C1C(=O)O[C@@H]2[C@H]1CCC(C)=C1C=CC(=O)[C@]12C
inactive: HT-29 10.9 µM | TK-10 23 µM | UO-31 14.9 µM | SW-620 6.21 µM | NCI-H522 2.42 µM | UACC-257 12.4 µM | SK-MEL-28 11.1 µM | COLO 205 8.36 µM | SNB-19 23.7 µM | HOP-92 6.22 µM | IGROV-1 21.8 µM | NCI-H23 > 10 µM | CAKI-1 15.1 µM | NCI-H226 22.9 µM | HL-60 3.3 µM | OVCAR-8 17.3 µM

CCC1(c2ccncc2)CCC(=O)NC1=O (stereo not given) [ROGLETIMIDE]
inactive: HT-29 > 100 µM | TK-10 > 100 µM | UO-31 > 100 µM | SW-620 > 100 µM | UACC-257 > 100 µM | LOX IMVI > 100 µM | SK-MEL-28 > 100 µM | COLO 205 > 100 µM | SNB-19 > 100 µM | HOP-92 52.4 µM | IGROV-1 > 100 µM | NCI-H23 > 100 µM | CAKI-1 > 100 µM | NCI-H226 > 100 µM | HL-60 > 100 µM | OVCAR-8 > 100 µM
